≈ marks a conversion by molar mass, not a printed value.
Legend:
THP-1 = experiment: Cytotoxicity against human THP1 cells after 24 hrs by MTS assay; assay type: cell-based; conditions: THP-1, 24 h
HepG2 = experiment: Cytotoxicity against human HepG2 cells after 24 hrs by MTS assay; assay type: cell-based; conditions: HepG2, 24 h
Haemophilus influenzae = experiment: Antibacterial activity against Haemophilus influenzae ATCC 49247 by broth microdilution method; assay type: functional
Streptococcus pyogenes [1] = experiment: Antibacterial activity against constitutive MLS resistance Streptococcus pyogenes 166 GR-Micro by broth microdilution method; assay type: functional
Streptococcus pneumoniae [2] = experiment: Antibacterial activity against constitutive MLS resistance Streptococcus pneumoniae 58 by broth microdilution method; assay type: functional
Streptococcus pyogenes [3] = experiment: Antibacterial activity against efflux-mediated macrolide-resistance Streptococcus pyogenes 2 by broth microdilution method; assay type: functional
Streptococcus pneumoniae [4] = experiment: Antibacterial activity against efflux-mediated macrolide-resistance Streptococcus pneumoniae Ci137 by broth microdilution method; assay type: functional
Staphylococcus aureus [5] = experiment: Antibacterial activity against efflux-mediated macrolide-resistance Staphylococcus aureus PK1 by broth microdilution method; assay type: functional
Streptococcus pyogenes [6] = experiment: Antibacterial activity against inducible resistance to macrolide, licosamide and streptogramin Streptococcus pyogenes 11 by broth microdilution method; assay type: functional
Streptococcus pneumoniae [7] = experiment: Antibacterial activity against inducible resistance to macrolide and constitutive resistance to lincosamide Streptococcus pneumoniae 134 GR M by broth microdilution method; assay type: functional
Staphylococcus aureus [8] = experiment: Antibacterial activity against inducible resistance to macrolide, licosamide, and streptogramin Staphylococcus aureus 90265/97 by broth microdilution method; assay type: functional

SMILES | IC50 (THP-1) [µM] | IC50 (HepG2) [µM] | MIC (Haemophilus influenzae) [µg/mL] | MIC (Streptococcus pyogenes [1]) [µg/mL] | MIC (Streptococcus pneumoniae [2]) [µg/mL] | MIC (Streptococcus pyogenes [3]) [µg/mL] | MIC (Streptococcus pneumoniae [4]; read-out: MIC) [µg/mL] | MIC (Staphylococcus aureus [5]) [µg/mL] | MIC (Streptococcus pyogenes [6]; read-out: MIC) [µg/mL] | MIC (Streptococcus pneumoniae [7]) [µg/mL] | MIC (Staphylococcus aureus [8]) [µg/mL] | MIC (Streptococcus pneumoniae [4]) [µg/mL] | MIC (Streptococcus pyogenes [6]) [µg/mL]
CC[C@H]1OC(=O)[C@H](C)[C@@H](O[C@H]2C[C@@](C)(OC)[C@@H](OCCCOCCCCc3cc4c5c(c3)c(=O)c(C(=O)O)cn5C(C)(C)CO4)[C@H](C)O2)[C@H](C)[C@@H](O[C@@H]2O[C@H](C)C[C@H](N(C)C)[C@H]2O)[C@](C)(O)C[C@@H](C)CN(C)[C@H](C)[C@@H](O)[C@]1(C)O | 11 | 46 | 1 (≈ 0.893 µM) | 0.5 (≈ 0.446 µM) | ≤ 0.125 | ≤ 0.125 | ≤ 0.125 | ≤ 0.125 | ≤ 0.125 | 0.5 (≈ 0.446 µM) | ≤ 0.125 | – | –
CC[C@H]1OC(=O)[C@H](C)[C@@H](O[C@H]2C[C@@](C)(OC)[C@@H](OCCCOCCCc3cc4c5c(c3)c(=O)c(C(=O)O)cn5C(C)(C)CO4)[C@H](C)O2)[C@H](C)[C@@H](O[C@@H]2O[C@H](C)C[C@H](N(C)C)[C@H]2O)[C@](C)(O)C[C@@H](C)CN(C)[C@H](C)[C@@H](O)[C@]1(C)O | 40 | > 50 | 2 (≈ 1.81 µM) | 1 (≈ 0.904 µM) | ≤ 0.125 | – | – | 0.13 (≈ 0.117 µM) | – | ≤ 0.125 | 0.06 (≈ 0.0542 µM) | < 0.02 | < 0.02
CC[C@H]1OC(=O)[C@H](C)[C@@H](O[C@H]2C[C@@](C)(OC)[C@@H](OCCCOCCCc3cc4c5c(c3)c(=O)c(C(=O)O)cn5C(C)(C)OC4)[C@H](C)O2)[C@H](C)[C@@H](O[C@@H]2O[C@H](C)C[C@H](N(C)C)[C@H]2O)[C@](C)(O)C[C@@H](C)CN(C)[C@H](C)[C@@H](O)[C@]1(C)O | 40 | > 50 | 1 (≈ 0.904 µM) | ≤ 0.125 | ≤ 0.125 | ≤ 0.125 | ≤ 0.125 | ≤ 0.125 | ≤ 0.125 | ≤ 0.125 | ≤ 0.125 | – | –
CC[C@H]1OC(=O)[C@H](C)[C@@H](O[C@H]2C[C@@](C)(OC)[C@@H](OCCCOCCCCCc3ccc4c(c3)c(=O)c(C(=O)O)cn4N(C)C)[C@H](C)O2)[C@H](C)[C@@H](O[C@@H]2O[C@H](C)C[C@H](N(C)C)[C@H]2O)[C@](C)(O)C[C@@H](C)CN(C)[C@H](C)[C@@H](O)[C@]1(C)O | 8 | 13 | 1 (≈ 0.903 µM) | 0.25 (≈ 0.226 µM) | ≤ 0.125 | ≤ 0.125 | ≤ 0.125 | ≤ 0.125 | ≤ 0.125 | 0.5 (≈ 0.451 µM) | ≤ 0.125 | – | –
CC[C@H]1OC(=O)[C@H](C)[C@@H](O[C@H]2C[C@@](C)(OC)[C@@H](OCCCOCCCCCc3ccc4c(c3)c(=O)c(C(=O)O)cn4CC)[C@H](C)O2)[C@H](C)[C@@H](O[C@@H]2O[C@H](C)C[C@H](N(C)C)[C@H]2O)[C@](C)(O)C[C@@H](C)CN(C)[C@H](C)[C@@H](O)[C@]1(C)O | 9 | 20 | 2 (≈ 1.83 µM) | 0.25 (≈ 0.229 µM) | ≤ 0.125 | ≤ 0.125 | ≤ 0.125 | ≤ 0.125 | ≤ 0.125 | 0.5 (≈ 0.458 µM) | ≤ 0.125 | – | –
CC[C@H]1OC(=O)[C@H](C)[C@@H](O[C@H]2C[C@@](C)(OC)[C@@H](OCCCOCCCCc3ccc4c(c3)c(=O)c(C(=O)O)cn4N(C)C)[C@H](C)O2)[C@H](C)[C@@H](O[C@@H]2O[C@H](C)C[C@H](N(C)C)[C@H]2O)[C@](C)(O)C[C@@H](C)CN(C)[C@H](C)[C@@H](O)[C@]1(C)O | 20 | 42 | 4 (≈ 3.66 µM) | 0.5 (≈ 0.457 µM) | 0.25 (≈ 0.229 µM) | ≤ 0.125 | ≤ 0.125 | ≤ 0.125 | ≤ 0.125 | 0.5 (≈ 0.457 µM) | ≤ 0.125 | – | –
CC[C@H]1OC(=O)[C@H](C)[C@@H](O[C@H]2C[C@@](C)(OC)[C@@H](OCCCOCCCCc3ccc4c(c3)c(=O)c(C(=O)O)cn4CC)[C@H](C)O2)[C@H](C)[C@@H](O[C@@H]2O[C@H](C)C[C@H](N(C)C)[C@H]2O)[C@](C)(O)C[C@@H](C)CN(C)[C@H](C)[C@@H](O)[C@]1(C)O | 22 | 46 | 0.5 (≈ 0.464 µM) | ≤ 0.125 | ≤ 0.125 | ≤ 0.125 | ≤ 0.125 | ≤ 0.125 | ≤ 0.125 | ≤ 0.125 | ≤ 0.125 | – | –
CC[C@H]1OC(=O)[C@H](C)[C@@H](O[C@H]2C[C@@](C)(OC)[C@@H](OCCCOCCCCc3ccc4c(c3)c(=O)c(C(=O)O)cn4C3CC3)[C@H](C)O2)[C@H](C)[C@@H](O[C@@H]2O[C@H](C)C[C@H](N(C)C)[C@H]2O)[C@](C)(O)C[C@@H](C)CN(C)[C@H](C)[C@@H](O)[C@]1(C)O | 20 | 47 | 0.5 (≈ 0.459 µM) | ≤ 0.125 | ≤ 0.125 | ≤ 0.125 | ≤ 0.125 | ≤ 0.125 | ≤ 0.125 | ≤ 0.125 | ≤ 0.125 | – | –
CCCCn1cc(C(=O)O)c(=O)c2cc(CCCOCCCO[C@H]3[C@H](C)O[C@@H](O[C@H]4[C@H](C)[C@@H](O[C@@H]5O[C@H](C)C[C@H](N(C)C)[C@H]5O)[C@](C)(O)C[C@@H](C)CN(C)[C@H](C)[C@@H](O)[C@](C)(O)[C@@H](CC)OC(=O)[C@@H]4C)C[C@@]3(C)OC)ccc21 | 27 | 49 | 1 (≈ 0.915 µM) | ≤ 0.125 | ≤ 0.125 | ≤ 0.125 | ≤ 0.125 | ≤ 0.125 | ≤ 0.125 | ≤ 0.125 | ≤ 0.125 | – | –
CCCn1cc(C(=O)O)c(=O)c2cc(CCCOCCCO[C@H]3[C@H](C)O[C@@H](O[C@H]4[C@H](C)[C@@H](O[C@@H]5O[C@H](C)C[C@H](N(C)C)[C@H]5O)[C@](C)(O)C[C@@H](C)CN(C)[C@H](C)[C@@H](O)[C@](C)(O)[C@@H](CC)OC(=O)[C@@H]4C)C[C@@]3(C)OC)ccc21 | 18 | 40 | 2 (≈ 1.85 µM) | 0.25 (≈ 0.232 µM) | ≤ 0.125 | ≤ 0.125 | ≤ 0.125 | ≤ 0.125 | ≤ 0.125 | ≤ 0.125 | 0.25 (≈ 0.232 µM) | – | –
CC[C@H]1OC(=O)[C@H](C)[C@@H](O[C@H]2C[C@@](C)(OC)[C@@H](OCCCOCCCc3ccc4c(c3)c(=O)c(C(=O)O)cn4C(C)C)[C@H](C)O2)[C@H](C)[C@@H](O[C@@H]2O[C@H](C)C[C@H](N(C)C)[C@H]2O)[C@](C)(O)C[C@@H](C)CN(C)[C@H](C)[C@@H](O)[C@]1(C)O | 46 | > 50 | 4 (≈ 3.71 µM) | ≤ 0.125 | ≤ 0.125 | ≤ 0.125 | ≤ 0.125 | ≤ 0.125 | ≤ 0.125 | < 0.125 | ≤ 0.125 | – | –
CC[C@H]1OC(=O)[C@H](C)[C@@H](O[C@H]2CC(C)(OC)[C@@H](OCCCOCCCc3ccc4c(c3)c(=O)c(C(=O)O)cn4C(C)(C)C)[C@H](C)O2)[C@H](C)[C@@H](O[C@@H]2O[C@H](C)C[C@H](N(C)C)[C@H]2O)[C@](C)(O)C[C@@H](C)CN(C)[C@H](C)[C@@H](O)[C@]1(C)O (stereo partly specified) | 40 | > 50 | 2 (≈ 1.83 µM) | ≤ 0.125 | ≤ 0.125 | ≤ 0.125 | ≤ 0.125 | ≤ 0.125 | ≤ 0.125 | ≤ 0.125 | ≤ 0.125 | – | –
CC[C@H]1OC(=O)[C@H](C)[C@@H](O[C@H]2C[C@@](C)(OC)[C@@H](OCCCOCCCc3ccc4c(c3)c(=O)c(C(=O)O)cn4N(C)C)[C@H](C)O2)[C@H](C)[C@@H](O[C@@H]2O[C@H](C)C[C@H](N(C)C)[C@H]2O)[C@](C)(O)C[C@@H](C)CN(C)[C@H](C)[C@@H](O)[C@]1(C)O | 48 | > 50 | 2 (≈ 1.85 µM) | ≤ 0.125 | ≤ 0.125 | ≤ 0.125 | ≤ 0.125 | ≤ 0.125 | ≤ 0.125 | 0.25 (≈ 0.232 µM) | ≤ 0.125 | – | –
CC[C@H]1OC(=O)[C@H](C)[C@@H](O[C@H]2C[C@@](C)(OC)[C@@H](OCCCOCCCc3ccc4c(c3)c(=O)c(C(=O)O)cn4C3CC3)[C@H](C)O2)[C@H](C)[C@@H](O[C@@H]2O[C@H](C)C[C@H](N(C)C)[C@H]2O)[C@](C)(O)C[C@@H](C)CN(C)[C@H](C)[C@@H](O)[C@]1(C)O | 48 | > 50 | 2 (≈ 1.86 µM) | ≤ 0.125 | ≤ 0.125 | ≤ 0.125 | ≤ 0.125 | ≤ 0.125 | ≤ 0.125 | ≤ 0.125 | ≤ 0.125 | – | –
CC[C@H]1OC(=O)[C@H](C)[C@@H](O[C@H]2C[C@@](C)(OC)[C@@H](O)[C@H](C)O2)[C@H](C)[C@@H](O[C@@H]2O[C@H](C)C[C@H](N(C)C)[C@H]2O)[C@](C)(O)C[C@@H](C)CN(C)[C@H](C)[C@@H](O)[C@]1(C)O [AZITHROMYCIN] | – | – | 1 (≈ 1.34 µM) | > 64 | > 64 | 8 (≈ 10.7 µM) | 8 (≈ 10.7 µM) | > 64 | 16 (≈ 21.4 µM) | > 64 | > 64 | – | –
CC[C@H]1OC(=O)[C@H](C)C(=O)[C@H](C)[C@@H](O[C@@H]2O[C@H](C)C[C@H](N(C)C)[C@H]2O)[C@](C)(OC)C[C@@H](C)C(=O)[C@H](C)[C@H]2N(CCCCn3cnc(-c4cccnc4)c3)C(=O)O[C@]12C [TELITHROMYCIN] | – | – | 1 (≈ 1.23 µM) | 16 (≈ 19.7 µM) | 0.25 (≈ 0.308 µM) | 0.5 (≈ 0.616 µM) | 0.5 (≈ 0.616 µM) | 0.125 (≈ 0.154 µM) | ≤ 0.125 | 0.25 (≈ 0.308 µM) | ≤ 0.125 | – | –
